The values below come from patent US8957094B2, “Therapeutic agent or prophylactic agent for fibromyalgia” (Toray Industries, Inc., priority 2010, dated 2015).

In assay [1] the test system is mouse partial sciatic nerve ligation model. Put plainly: Mouse partial sciatic nerve ligation model (Seltzer model), von Frey test (neuropathic pain). It is filed as in vivo. Set-up: von Frey Total Score of 1 Hour after Oral Administration (Mean ± S.E.), Test Compound-Administered Group: scale not given here. The settings on record: for Score Improvement %: 1 hour after administration, relative to vehicle and sham surgery groups; for von Frey Total Score of 1 Hour after Oral Administration (Mean ± S.E.), Test Compound-Administered Group: n = 5-6, 7 days after ligation. The procedure: Mouse models of partial sciatic nerve ligation were prepared according to Seltzer's method (Malmberg et al., Pain, 1998, vol. 76, p. 215-222). Male ICR mice of 5 weeks old were anesthetized with Sodium pentobarbital (70 mg/kg, i.p.), and thereafter, the sciatic nerve at the femoral region of the right hindlimb of each mouse was exposed, and the sciatic nerve was triply ligated tightly with silk suture of 8-0 (NATSUME SEISAKUSHO) under microscope so that only half thickness of the nerve was trapped in the ligature, which mice were used as a ligation group. The mice whose sciatic nerves were exposed but not ligated were used as a sham surgery group.
Evaluation of neuropathic pain (hereinafter “von Frey test”) was carried out as follows. Mice were conditioned for at least 1 hour in an acryl cage for measurement (NATSUME SEISAKUSHO) placed on a wire net. Thereafter, using a filament (North Coast Medical, Inc. CA, USA) which exerted a pressure of 0.16 g, the mice were subjected to mechanical tactile stimulus by applying the filament to the plantar surface of both hindpaws 3 times, each for 3 seconds, with an interval of 3 seconds.
Seven days after the sciatic nerve ligation, test compounds were orally administered to the mice. Prior to the oral administration of the test compounds, the von Frey test was carried out to split the animals of the ligation group into vehicle groups and test compound-administered groups so that the sums of the total scores of the groups were equalized. The mice of the sham surgery groups, the vehicle groups and the test compound-administered groups were subjected to the von Frey test 1 hour, 2 hours and 3 hours after oral administration of a vehicle or a test compound, and the obtained scores were used as an indicator of analgesic effect. As a vehicle of test compound solution or suspension, DMSO:Tween80:distilled water (1:1:8), 27% HP-β-CD or 0.5% MC was used.
For evaluation of drug efficacy, data were statistically processed by unpaired multigroup t test (adjusted by Dunnett), taking the vehicle group of each measurement time as a control.

Assay [2] relates to rat fibromyalgia model. The assay can be described thus: Effects on rat fibromyalgia model (acidic saline injection; allodynia by von Frey filaments). It is filed as in vivo. The settings on record: compared with the vehicle group, Day 7, 1-3 h after dosing, p<0.05, FIG. 1. The protocol:
In the experiments, 5 to 6 male SD rats of 6 to 7 weeks old were used for one experimental group. One hundred microliters of acidic physiological saline with pH of 4.0 was injected twice (taking the day when administration of acidic physiological saline started as Day 1, the administration was carried out once on Day 1 and once on Day 6) to gastrocnemius muscle of right hindlimb of each anesthetized rat to prepare a rat fibromyalgia model (Sluka et al., J. Pharmacol. Exp. Ther., 2002, vol. 302, p. 1146; Nagakura et al., Pain, 2009, vol. 146, p. 26; Sluka et al., Pain, 2009, vol. 146, p. 3), which was considered to reflect clinical symptoms of fibromyalgia based on their pharmacological characteristics and thus widely used in basic studies of fibromyalgia. In the same manner, physiological saline was administered to the control group.
For measurement of allodynia observed in a rat fibromyalgia model, a 50% withdrawal threshold (g) was determined using von Frey filaments in accordance with the method described in Chaplan et al., J. Neurosci. Methods, 1994, vol. 53, p. 55. On Day 7, allodynia was measured before oral administration of the test compound as Pre, and 1-, 2- and 3-hour after oral administration of the test compound. Rats which developed allodynia by receiving intramuscular injection of acidic physiological saline were used as a rat fibromyalgia model to evaluate the analgesic effect of the test compound. The term “rats which developed allodynia” herein means the rats showing a 50% withdrawal threshold (g) (the mean value of right and left hind paws) of 6 g or less. Pregabalin was used as a positive control.
Compound 3, which is included in Compound (I), was suspended in 0.5% methylcellulose solution (hereinafter “0.5% MC”) to a concentration of 5 mg/mL or 10 mg/mL, and orally administered at an administration volume of 1 mL per 1 kg body weight. Pregabalin was suspended in 0.5% MC to a concentration of 10 mg/mL, and orally administered at an administration volume of 1 mL per 1 kg body weight. The vehicle group received oral administration of 0.5% MC. […]

Assay [3] concerns fibromyalgia. The settings on record: reported, Abeles et al., Am J. Med., 2008; cited from earlier work.

On to `COc1ccc(-n2nc(C3(O)CCC(O)CC3)cc2-c2ccc(C)cc2)cc1` (single isomer, unassigned) [Compound 2, 1-(1-(4-methoxyphenyl)-5-(p-tolyl)-1H-pyrazol-3-yl)cyclohexan-trans-1,4-diol], for which, in assay [1] (dose 0.3 mg/kg oral, 0.3 mg/kg), the “Score Improvement %” value turned out to be 104% and the “von Frey Total Score of 1 Hour after Oral Administration (Mean ± S.E.), Test Compound-Administered Group” value (“von Frey Total Score of 1 Hour” below) is recorded as 0.8 ± 0.5.
`COc1ccc(-n2nc(C3(O)CCC(O)CC3)cc2-c2ccc(C)cc2)cc1` (single isomer, unassigned) [Compound 3, 1-(1-(4-methoxyphenyl)-5-(p-tolyl)-1H-pyrazol-3-yl)cyclohexan-cis-1,4-diol]: in assay [2] (oral administration 5 mg/kg), the “allodynia observed in the rat fibromyalgia model (50% withdrawal threshold)” value (“allodynia observed … (50% withdrawal threshold)” below) is “significantly improved allodynia”. In addition, the “allodynia observed … (50% withdrawal threshold)” value in assay [2] (oral administration 10 mg/kg) is on record as “significantly improved allodynia”. Also, in assay [1] (dose 0.3 mg/kg oral, 0.3 mg/kg), the “Score Improvement %” value was 83% and the “von Frey Total Score of 1 Hour” value is recorded as 1.2 ± 0.8.
For the molecule `COc1ccc(-c2cc(C3(O)CCC(O)CC3)nn2-c2ccc(OC)cc2)cc1` (stereo not drawn) [Compound 8, 1-(1,5-bis(4-methoxyphenyl)-1H-pyrazol-3-yl)cyclohexan-cis-1,4-diol], the “von Frey Total Score of 1 Hour” value in assay [1] (dose 10 mg/kg oral) was found to be 2.2 ± 0.5.
`COc1ccc(-n2nc(C3(O)CCC(O)CC3)c(Cl)c2-c2ccc(C)cc2)cc1` (stereo not drawn) [Compound 9, 1-(4-chloro-1-(4-methoxyphenyl)-5-(p-tolyl)-1H-pyrazol-3-yl)cyclohexan-cis-1,4-diol]: the “von Frey Total Score of 1 Hour” value in assay [1] (dose 10 mg/kg oral) is listed as 1.7 ± 0.6.
Consider `COc1ccc(-n2nc(C3(O)CCC(O)(C(F)(F)F)CC3)cc2-c2ccc(C)cc2)cc1` (stereo not drawn) [Compound 10, 1-(1-(4-methoxyphenyl)-5-(p-tolyl)-1H-pyrazol-3-yl)-4-(trifluoromethyl)cyclohexan-cis-1,4-diol], for which the “von Frey Total Score of 1 Hour” value in assay [1] (dose 1 mg/kg oral) was found to be 1.5 ± 0.5.
As for `COc1ccc(-n2nc(C3(O)CCC(C(=O)O)CC3)cc2-c2ccc(C)cc2)cc1` (stereo not drawn) [Compound 16, 4-hydroxy-4-(1-(4-methoxyphenyl)-5-(p-tolyl)-1H-pyrazol-3-yl)-cis-cyclohexanecarboxylic acid], in assay [1] (dose 1 mg/kg oral), the “von Frey Total Score of 1 Hour” value came out at 2.3 ± 0.5.
Regarding `COc1ccc(-c2nc(C3(O)CCC(O)CC3)oc2-c2ccc(OC)cc2)cc1` (stereo not drawn) [Compound 43, 4-(4,5-bis(4-methoxyphenyl)oxazol-2-yl)cyclohexan-cis-1,4-diol], the “von Frey Total Score of 1 Hour” value in assay [1] (dose 10 mg/kg oral) came out at 0.8 ± 0.7.
`COc1ccc(-n2nc(C3(O)CCC(O)CC3)cc2-c2ccc(C)cc2)cc1F` (stereo not shown) [Compound 54]: in assay [1] (dose 10 mg/kg oral), the “von Frey Total Score of 1 Hour” value amounted to 1.2 ± 0.6.
For `COc1ccc(-n2nc(C3(O)CCC(O)CC3)cc2-c2ccc(C)c(F)c2)cc1` (stereo not shown) [Compound 55], the “von Frey Total Score of 1 Hour” value in assay [1] (dose 3 mg/kg oral) is recorded as 0.7 ± 0.5.
In the case of `CC(C)Cc1ccc(C(C)C(=O)O)cc1` (stereo not shown) [ibuprofen], the “analgesic effect in treating fibromyalgia” value in assay [3] is given as “any statistically significant analgesic effect is not observed”.
Consider `COc1ccc2cc([C@H](C)C(=O)O)ccc2c1` [naproxen], for which the “analgesic effect in treating fibromyalgia” value in assay [3] is reported as “any statistically significant analgesic effect is not observed”.
For the molecule `CC(C)C[C@H](CN)CC(=O)O` [pregabalin, reference compound], the “allodynia observed … (50% withdrawal threshold)” value in assay [2] (oral administration 10 mg/kg) is on record as “significantly improved allodynia”.
